# Measurements from paper PMC9127750, “Structure-based design of CDC42 effector interaction inhibitors for the treatment of cancer” (Cell reports, 2022).
# Test system: WM3248 melanoma cells, 486 antibodies
# Assay: Reverse phase protein arrays (RPPA);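 for RPPA ACC1.R.C: ratio of treated to vehicle (0 µM) normalized linear protein signal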;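 for RPPA AMPK.a2 pS345.R.V: ratio of treated to vehicle (0 µM) normalized linear protein signal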;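 for RPPA AMPKa pT172.R.C: ratio of treated to vehicle (0 µM) normalized linear protein signal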;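 for RPPA ASNS.R.V: ratio of treated to vehicle (0 µM) normalized linear protein signal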;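 for RPPA AceCS1.R.V: ratio of treated to vehicle (0 µM) normalized linear protein signal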;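 for RPPA Akt1.R.V: ratio of treated to vehicle (0 µM) normalized linear protein signal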;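 for RPPA Atg5.R.C: ratio of treated to vehicle (0 µM) normalized linear protein signal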;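 for RPPA Bim.R.V: ratio of treated to vehicle (0 µM) normalized linear protein signal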
# Format: cell-based, Human
# Details: 5 uM
# From the text: Pellets were snap frozen in liquid nitrogen and shipped to MD Anderson Cancer Center core RPPA facility for RPPA analysis (Table S5). Three biological replicates for each sample were generated.
# Nomenclatures on the RPPA heatmaps: name_of_antibody.species_of_antibody.status_of_antibody. V - antibody validated; C - validation of antibody in progress; Q - antibody nonspecific; E – under evaluation; antibodies raised in M - mouse, G - goat, R - rabbit, or T - rat.
smiles,measurement,setting,value
"CN(C)c1cccc(Nc2cc(-c3ccccc3)nc(C3CCNCC3)n2)c1 [ARN22089, N1,N1-dimethyl-N3-(6-phenyl-2-(piperidin-4-yl)pyrimidin-4-yl)benzene-1,3-diamine]",RPPA MYH11.R.C Average,,0.914
same,RPPA Myosin.IIa.R.C Average,,0.843
same,RPPA Myosin.IIa_pS1943.R.V Average,,0.844
same,RPPA Myt1.R.C Average,,1.051
same,RPPA N.Cadherin.R.V Average,,1.019
same,RPPA N.Ras.M.V Average,,1.035
same,RPPA NAPSIN.A.R.C Average,,1.080
same,RPPA NDRG1_pT346.R.V Average,,0.957
same,RPPA NDUFB4.R.V Average,,0.959
same,RPPA NRF2.R.C Average,,1.058
same,RPPA Notch1.R.V Average,,0.994
same,RPPA Notch1.cleaved.R.V Average,,0.989
same,RPPA P.Cadherin.R.C Average,,1.050
same,RPPA PAI.1.M.V Average,,0.977
same,RPPA PAICS.R.C Average,,0.899
same,RPPA PAK1.R.V Average,,1.006
same,RPPA PAK4.R.V Average,,0.986
same,RPPA PAK_pT423_T402.R.C Average,,0.921
same,RPPA PAR.R.C Average,,1.327
same,RPPA PARG.R.C Average,,1.012
same,RPPA PARP.R.V Average,,1.023
same,RPPA PAX6.R.V Average,,1.030
same,RPPA PAX8.R.C Average,,0.962
same,RPPA PCNA.M.C Average,,0.948
same,RPPA PD.1.R.V Average,,0.992
same,RPPA PD.L1.R.C Average,,1.064
same,RPPA PDH.M.V Average,,1.049
same,RPPA PDHA1.R.V Average,,1.079
same,RPPA PDHK1.R.C Average,,1.057
same,RPPA PDK1_pS241.R.V Average,,1.138
same,RPPA PEA.15.R.V Average,,0.904
same,RPPA PEA.15_pS116.R.V Average,,1.018
same,RPPA PERK.R.V Average,,0.925
same,RPPA PGM1.R.V Average,,0.979
same,RPPA PHGDH.R.C Average,,1.081
same,RPPA PHLPP.R.V Average,,0.922
same,RPPA PI3K.p85.R.C Average,,0.987
same,RPPA PI3K.p110.a.R.C Average,,1.057
same,RPPA PI3K.p110.b.M.C Average,,0.980
same,RPPA PKA.a.R.V Average,,1.013
same,RPPA PKC.a.b.II_pT638_T641.R.V Average,,0.925
same,RPPA PKC.b.II_pS660.R.V Average,,1.162
same,RPPA PKCa.R.V Average,,1.462
same,RPPA PKM2.R.C Average,,0.954
same,RPPA PLC.gamma1.R.V Average,,0.970
same,RPPA PLC.gamma1_pS1248.R.V Average,,1.060
same,RPPA PLC.gamma2_pY759.R.V Average,,0.976
same,RPPA PLK1.R.C Average,,0.920
same,RPPA PMS2.R.V Average,,0.940
same,RPPA PR.R.V Average,,1.032
same,RPPA PRAS40.M.C Average,,0.991
same,RPPA PRAS40_pT246.R.V Average,,1.028
same,RPPA PRC1_pT481.R.C Average,,0.944
same,RPPA Paxillin.R.C Average,,0.977
same,RPPA Pdcd4.R.C Average,,1.156
same,RPPA Porin.M.V Average,,0.936
same,RPPA p21.R.C Average,,1.048
same,RPPA p27.Kip1.R.C Average,,0.948
same,RPPA p27_pT157.R.C Average,,0.943
same,RPPA p27_pT198.R.V Average,,1.103
same,RPPA p38.MAPK.R.V Average,,1.062
same,RPPA p38.MAPK._pT180_Y182.R.V Average,,1.580
same,RPPA p38.a.M.V Average,,0.984
same,RPPA p44.42.MAPK.R.V Average,,0.980
same,RPPA p53.R.C Average,,1.052
same,RPPA p70.S6K1.R.V Average,,0.998
same,RPPA p70.S6K_pT389.R.V Average,,1.143
same,RPPA p90RSK_pT573.R.C Average,,0.930
same,RPPA A.Raf.R.V,5W1,1.057
same,RPPA A.Raf_pS299.R.C,5W1,0.952
same,RPPA ACC1.R.C,5W1,1.201
same,RPPA ACC_pS79.R.V,5W1,1.224
same,RPPA ACLY_pS455.R.V,5W1,1.273
same,RPPA ACSL1.R.V,5W1,0.847
same,RPPA ACVRL1.R.C,5W1,0.930
same,RPPA ADAR1.M.V,5W1,0.910
same,RPPA ALKBH5.R.V,5W1,0.866
same,RPPA AMPK.a2_pS345.R.V,5W1,1.146
same,RPPA AMPKa.R.C,5W1,1.108
same,RPPA AMPKa_pT172.R.C,5W1,2.494
same,RPPA AR.R.V,5W1,1.056
same,RPPA ARID1A.R.C,5W1,0.880
same,RPPA ASNS.R.V,5W1,0.847
same,RPPA ATM.R.V,5W1,1.285
same,RPPA ATM_pS1981.R.V,5W1,0.930
same,RPPA ATP5A.M.C,5W1,0.983
same,RPPA ATP5H.R.V,5W1,0.890
same,RPPA ATR.R.V,5W1,0.910
same,RPPA ATRX.R.C,5W1,1.060
same,RPPA ATR_pS428.R.C,5W1,1.111
same,RPPA AceCS1.R.V,5W1,0.974
same,RPPA Akt1.R.V,5W1,1.150
same,RPPA Akt1_pS473.R.V,5W1,1.251
same,RPPA Akt2.R.V,5W1,1.156
same,RPPA Akt2_pS474.R.C,5W1,1.400
same,RPPA Akt.R.V,5W1,1.121
same,RPPA Akt_pS473.R.V,5W1,1.390
same,RPPA Akt_pT308.R.V,5W1,1.046
same,RPPA Ambra1_pS52.R.C,5W1,0.943
same,RPPA Annexin.VII.M.V,5W1,0.883
same,RPPA Atg4B.R.C,5W1,1.033
same,RPPA Atg5.R.C,5W1,1.001
same,RPPA Atg7.R.V,5W1,0.986
same,RPPA Aurora.A.R.C,5W1,0.575
same,RPPA Aurora.ABC_pT288_pT232_pT198.R.C,5W1,0.881
same,RPPA Aurora.B.R.V,5W1,0.940
same,RPPA Axl.R.V,5W1,1.329
same,RPPA B7.H3.R.C,5W1,0.986
same,RPPA B7.H4.R.C,5W1,1.110
same,RPPA B.Raf.R.C,5W1,1.153
same,RPPA BAP1.M.V,5W1,0.943
same,RPPA BCL2A1.R.V,5W1,1.060
same,RPPA BMK1.Erk5_pT218_Y220.R.V,5W1,0.857
same,RPPA BRCA1.M.C,5W1,0.962
same,RPPA BRD4.R.V,5W1,0.959
same,RPPA Bad_pS112.R.V,5W1,1.171
same,RPPA Bak.R.C,5W1,1.077
same,RPPA Bax.R.V,5W1,0.955
same,RPPA Bcl2.R.C,5W1,0.855
same,RPPA Beclin.R.C,5W1,0.863
same,RPPA BiP.GRP78.M.C,5W1,0.936
same,RPPA Bim.R.V,5W1,1.056
same,RPPA X4E.BP1.R.V,5W1,1.448
same,RPPA X4E.BP1_pS65.R.V,5W1,0.917
same,RPPA X14.3.3.zeta.R.V,5W1,0.934
same,RPPA X14.3.3βR.V,5W1,0.934
same,RPPA X53BP1.R.V,5W1,1.104
same,RPPA b.Actin.R.C,5W1,0.885
same,RPPA b.Catenin.R.V,5W1,0.881
same,RPPA b.Catenin_pT41_S45.R.V,5W1,1.099
same,RPPA c.Abl.R.V,5W1,1.227
same,RPPA c.Abl_pY412.R.C,5W1,1.133
same,RPPA c.IAP2.R.C,5W1,0.965
same,RPPA A.Raf.R.V,5W3,1.155
same,RPPA A.Raf_pS299.R.C,5W3,1.022
same,RPPA ACC1.R.C,5W3,0.834
same,RPPA ACC_pS79.R.V,5W3,0.685
same,RPPA ACLY_pS455.R.V,5W3,0.716
same,RPPA ACSL1.R.V,5W3,0.628
same,RPPA ACVRL1.R.C,5W3,0.953
same,RPPA ADAR1.M.V,5W3,1.141
same,RPPA ALKBH5.R.V,5W3,0.830
same,RPPA AMPK.a2_pS345.R.V,5W3,1.116
same,RPPA AMPKa.R.C,5W3,1.027
same,RPPA AMPKa_pT172.R.C,5W3,0.821
same,RPPA AR.R.V,5W3,1.102
same,RPPA ARID1A.R.C,5W3,1.193
same,RPPA ASNS.R.V,5W3,1.291
same,RPPA ATM.R.V,5W3,1.157
same,RPPA ATM_pS1981.R.V,5W3,0.939
same,RPPA ATP5A.M.C,5W3,0.233
same,RPPA ATP5H.R.V,5W3,0.791
same,RPPA ATR.R.V,5W3,0.960
same,RPPA ATRX.R.C,5W3,1.213
same,RPPA ATR_pS428.R.C,5W3,1.112
same,RPPA AceCS1.R.V,5W3,0.718
same,RPPA Akt1.R.V,5W3,0.726
same,RPPA Akt1_pS473.R.V,5W3,0.998
same,RPPA Akt2.R.V,5W3,0.876
same,RPPA Akt2_pS474.R.C,5W3,1.140
same,RPPA Akt.R.V,5W3,0.848
same,RPPA Akt_pS473.R.V,5W3,1.107
